The test system of one data set is Aspc1 cells. As to the kind of experiment: Aspc1 cell viability over time (AlamarBlue proliferation curves). It is filed as cell-based, human. The conditions noted are these: 0.1 μM or 1.0 μM, relative to vehicle (FIG. 1a). The method, then:
For proliferation curves, cells were plated in 96-well plates (Corning, 3603) and allowed to seed overnight. Replicate plates were plated for each time point since viability measurements were an endpoint procedure. The following day, cells were treated with Compound at indicated concentrations and treated with DMSO at the highest used concentration (always below 0.003%). Cells were treated for 96 hours, and viability was determined every 24 hours using AlamarBlue reagent (BioRad, BUF012B). Briefly, 10 μL of AlamarBlue was added to each well (100 μL), mixed briefly, and allowed to incubate at 37° C. and 5% CO2 for 4 hours. Following incubation, fluorescence was measured on a Promega multimode microplate reader. For analysis, background levels were subtracted from raw results, which were then normalized to be represented as a fold change compared to DMSO-treated cells on Day 0. All assays were carried out in at least triplicate with 4-8 technical replicates per treatment group, per experiment. (FIG. 1a and FIG. 10b)
(Resazurin is reduced to fluorescent resorufin, in cell work by metabolically active cells.)

The nature of data set [1]: Compound 1 levels in plasma, quadriceps and PDA tissue of KPC mice. Type of data set: in vivo. The conditions noted are these: 24 hours after single oral dose 10 mg/kg (FIG. 5a). The method, then: Blood plasma and tissue samples to be used for analysis were immediately frozen on dry ice and stored at −80° C. until analysis. Concentrations of Compound 1 in samples were quantified using high-performance liquid chromatography with tandem mass spectrometry (LC-MS/MS). Compound 1 and its internal standard (deuterated Compound 1) were recovered by protein precipitation extraction from samples.
For the pharmacokinetic study that assessed plasma, quadriceps muscle, and tumor tissue following a single dose of Compound 1 the assay conditions were as follows (FIG. 5a):
Plasma: A standard curve was made to cover concentrations between 0.002 ug/mL and 6.0 ug/mL. the LLOQ for Compound 1 (either version) in plasma was 0.001 μg/mL
Quadriceps muscle: A standard curve was made to cover concentrations between 0.001 μg/g wet tissue and 3.0 μg/g wet tissue. The LLOQ for Compound 1 (either version) was 0.01 μg/g wet tissue.
Tumor tissue: A standard curve was made to cover concentrations between 0.001 μg/g wet tissue and 3.0 μg/g wet tissue. The LLOQ for Compound 1 (either version) was 0.02 μg/g wet tissue.

The subject of a further data set is tubulin. As to the kind of experiment: Immunocytochemistry of tubulin and DAPI in Aspc1 cells. It is filed as cell-based, human. The conditions noted are these: 24 hours, relative to vehicle (FIGS. 11c, 11d). The procedure: Cells were seeded onto glass coverslips in 12-well plates. Coverslips were prepared by soaking in 1N HCl (60° C., 6 hours), washing in 70% ethanol, and coating with poly-l-lysine (Sigma, P5899) according to manufacturer's instructions. Cells were seeded such that they would be 50% confluent the following day. Cells were then treated with vehicle (DMSO, <0.003%) or 1 μM Compound 1 and incubated for 24 hours. Following treatment, cells were washed with TBS and free tubulin was extracted with Brinkley Buffer 1980 (80 mM PIPES pH 6.8, 1 mM MgCl2, 1 mM EGTA) supplemented with 4 mM EGTA and 0.5% Triton-X (30 seconds). After extraction, cells were fixed for 20 minutes in 4% formaldehyde diluted in Cytoskeleton Buffer (10 mM MES pH 6.1, 138 mM KCl, 3 mM MgCl2, 2 mM EGTA) supplemented with 0.32M sucrose. […]
Confocal imaging was performed using an A1 laser scanning confocal attachment on an Eclipse Ti microscope stand using a 60x/1.49 ApoTIRF oil-immersion objective and standard lasers and filter sets (Nikon Instruments, Melville, N.Y.). […] Images were visualized, analyzed, and prepared for publication using the Fiji distribution of ImageJ (Schindelin J, Arganda-Carreras I, Frise E, et al. Fiji: an open-source platform for biological-image analysis. Nature Methods 2012; 9:676-682). […]

SMILES strings stand for the structures. “Also recorded” adds a separate entry of the source.

For `Cc1nc2ccc(F)cc2n1-c1nc(N)c(F)c(Nc2ccc(C(F)(F)F)cc2)n1` [Compound 1, 5-fluoro-2-(6-fluoro-2-methyl-1H-benzo[d]imidazol-1-yl)-N4-[4-(trifluoromethyl)phenyl]pyrimidine-4,6-diamine], the “relative Aspc1 cell viability over time” value in the data set with Aspc1 cells was “dose and time-dependent decrease in human PDA cell viability”. The “distribution into PDA tumor tissue” value in data set [1] is “effective biodistribution into tumor tissues; also recorded: distributes into PDA tissues”. Also, the “tubulin staining in Aspc1 cells” value in the data set on tubulin is given as “significant reduction in tubulin formation”.

The values above are taken from patent US12023335B2, “Method for treating pancreatic cancer” (PTC THERAPEUTICS, INC., priority 2018, dated 2024).
